Source: patent US20260365698A1, “STAPLED PEPTIDES FOR SENSITIZATION OF CANCER TO TREATMENT” (Purdue Research Foundation, priority 2022, published 2026)
Entries after “also recorded” stand apart in the source; their conditions may differ. Bridge positions count the residues as written; N and C are the ends. Square brackets hold non-standard residues; d marks the D form. Peptide text beside a SMILES is read from it. S5 = C=CCCC[C@](C)(N)C(=O)O

Key:
Nrf2/MafG heterodimer = Nrf2/MafG heterodimer (Homo sapiens, UniProt O15525); assay: Split luciferase assay with purified MafG and Nrf2; type: biochemical; settings: in vitro, FIG. 6A; listed as NIS
Description: Data shown are from three technical replicates with standard error. The data are representative of three independent experiments. *p<0.05, **p<0.01, ***p<0.001, student's T-test compared to dimethyl sulfoxide (DMSO).

[1] = system: thioredoxin reductase 1 (TrxR1) in A549 cells; assay: Western blot, TrxR1 expression; type: cell-based; settings: 72 hours
Experimental: After confirming the in vitro activity of NIS, its mechanism in a cellular context was examined. Western blots were carried out in the A549 non-small cell lung cancer cell line to show the effects of N1S inhibition on the protein expression of Nrf2-regulated proteins. Briefly, A549 cells were seeded in 6-well plates at a concentration of 2×10^5 cells/ml in 2.5 ml. Cells were treated the next day with either peptide at the desired concentration or DMSO. After a 72-hour incubation, cells were collected by trypsinization and centrifugation. Pellets were washed with PBS three times before the pellet was resuspended in 250 μL of RIPA buffer containing protease inhibitor and kept on ice for 30 minutes with intermittent vortex. The cells were then spun at 16,000 g for 5 minutes, and the supernatant was collected. Protein concentration of lysate was normalized with Pierce BCA Protein Assay Kit (Thermo Fisher Scientific, Waltham, MA). Equal volumes of lysate were mixed with 2× Laemmli sample buffer before separating on 4-15% Mini Protean TGX SDS-PAGE (Bio-Rad Laboratories, Hercules, CA). […]
ImageJ was used for quantification of all bands. Primary antibodies: TrxR1 (Santa Cruz Biotechnology, Dallas, TX), sc-28321, 1:100 dilution (~55 kDa band analyzed); j-actin (Cell Signaling Technology, Inc., Danvers, MA), #3700, 1:1000. […]

[2] = system: A549 non-small cell lung cancer cells; assay: Incucyte live-cell analysis of combination with cisplatin; synergy by Chou-Talalay method; type: cell-based; settings: relatively low concentrations of cisplatin, varying concentrations of N1S
Experimental: Cl values<1 were synergistic (red), CI values=1 were additive (green), and CI values>1 were antagonistic (not observed).
NTS, cisplatin, or a combination thereof. Error bars represent the standard deviation between three technical replicates. The data are representative of three independent experiments.
(§1) The ability of compound N1S to increase sensitivity to chemotherapeutics was examined. A549 non-small cell lung cancer cells were seeded into a Corning® 96-Well Cell Culture Plate (clear, sterile, non-treated) and incubated for 24 hours. The cells were treated with cisplatin alone, compound NIS alone, or in combination. Immediately following treatment, the cells were placed into an Incucyte® S3 Live-Cell Analysis Instrument (Sartorius AG, Gottingen, Germany) and imaged every two hours for three days. The Incucyte® S3's analytical software was used to calculate cell confluency at each time point. Synergy was determined using the Chou-Talalay method.

red blood cells = assay: Hemolysis assay; type: cell-based; settings: 100 μM
Experimental: (§2) Finally, a hemolysis assay was performed based on a method described in Hostetler et al. (2021), supra. The peptides were tested at a final concentration of 100 μM and an average of 0.3% hemolysis was observed (data not shown).

Hemolysis assay = type: cell-based; settings: red blood cells
Experimental: as §2

MafG = target: T1, MafG (Homo sapiens, UniProt O15525); assay: Surface plasmon resonance (SPR); type: binding
T1 construct: made in house; host or cells: E. coli Rosetta (DE3), vector pET15B, Ni-NTA purified
Experimental: To determine the affinity of binding between MafG and compound NIS, surface plasmon resonance (SPR) was performed with biotin-labeled compound NIS and His-MafG. For all SPR-binding measurements, a Biacore 100-Instrument (Biacore-GE) was used. Binding between MafG and biotin-labeled compound NIS peptide was performed by first immobilizing the biotin N1S peptide on a SA chip (Cytiva, Marlborough, MA). The binding buffer (150 mM NaCl, 10 mM HEPES, pH 7.5, 1 mM MgCl2, 1 mM […] (TCEP) and 0.05% P-20) was used. Biotin-compound NIS (1 μM) was injected at a rate of 10 μl min^−1 for 10 minutes, immobilizing approximately 528 response units. Increasing concentrations of MafG (two-fold dilutions between 2.5 μM and 0.100 μM, including two blanks) were subsequently passed over the Biotin-compound N1S functionalized chip as well as a streptavidin reference surface. Multiple cycle analysis was carried out, without regenerating the chip between different MafG concentrations. Binding data was reference normalized and processed using Prism software, A one-site binding model was applied to the processed data set to determine binding parameters of MafG binding to N1S.

[3] = system: A549 non-small cell lung cancer cells; assay: MTT assay / live cell growth, combination with cisplatin; type: cell-based
Experimental: Percent dead in red color indicates higher percentage of death. Data are representative of three independent replicates.
as §1
Additionally, an MTT assay was performed on the plate of cells from the Incucyte® study, and a separate, identical plate of cells was incubated for 24 hours. MTT reagent (20 μL of 5 mM stock) was added to each well and incubated for three hours at 37 °C. Following incubation, the plate was spun down at 2,500 rpm for five minutes at room temperature and then aspirated to remove the media. […] The absorbance of each well was measured at 570 nm using a plate reader (Molecular Devices SpectraMax® iD5 Multi-Mode Microplate Reader). […]

Sequence of Nrf2/MafG heterodimer (O15525 whole entry, one chain of several): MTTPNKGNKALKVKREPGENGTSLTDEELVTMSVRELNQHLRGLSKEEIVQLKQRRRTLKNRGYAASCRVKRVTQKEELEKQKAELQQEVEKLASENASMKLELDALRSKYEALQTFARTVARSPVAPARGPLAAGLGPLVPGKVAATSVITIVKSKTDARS
T1 sequence (O15525 whole entry): as the sequence (O15525 whole entry, one chain of several) above

In the case of `CC[C@H](C)[C@H](NC(C)=O)C(=O)N[C@H](C(=O)N[C@@H](CCC(=O)O)C(=O)N[C@@H](CC(C)C)C(=O)N[C@@H](CCC(=O)O)C(=O)N[C@@]1(C)CCCC=CCCC[C@@](C)(C(=O)N[C@@H](CC(C)C)C(=O)N[C@@H](CCCCN)C(=O)N[C@@H](CC(=O)O)C(=O)N[C@@H](CCC(=O)O)C(=O)N[C@@H](CCCCN)C(=O)N[C@@H](CCC(=O)O)C(N)=O)NC(=O)[C@H](CC(=O)O)NC(=O)[C@H](CC(C)C)NC(=O)[C@H](CC(=O)O)NC1=O)C(C)C` [N1S] (Ac-IVELE[S5]DLD[S5]LKDEKE-NH2; staple 6-10), the “inhibition of dimerization of Nrf2 with MafG” value (Nrf2/MafG heterodimer) is reported as “inhibiting dimerization of Nrf2 with MagF in vitro in a dose-dependent manner; also recorded: inhibits its dimerization with Nrf2”, the TrxR1 protein expression [1] is reported as “decrease” and the synergy with cisplatin [2] is reported as “synergy was observed; also recorded: strong synergy”. For the same molecule, the “toxicity to red blood cells” value (red blood cells) was “no toxicity”, the hemolysis at 100 µM (Hemolysis assay) was 0.3% and the Kd (MafG; biotin-labeled N1S on SA chip, His-MafG passed over, one-site binding model, read-out: dissociation constant) was 337 nM. For the same molecule, the “direct binding to MafG” value (MafG; summary of in vitro analysis) was “directly binds MafG”, the “growth compared to either treatment alone” value ([3]; 50 μM N1S combined with 6 μM cisplatin) was “greatly reduced levels of growth” and the “sensitization of cancer cell lines to chemotherapeutics” value ([3]; combination with cisplatin) was “can greatly sensitize cancer cell lines to chemotherapeutics”.
